The values that follow come from ChEMBL document CHEMBL5729785, “Pyridazinones as PARP7 inhibtors” (2023).

The target in this test is T1, Protein mono-ADP-ribosyltransferase TIPARP (Homo sapiens, UniProt Q7Z3E1).
T1 sequence (Q7Z3E1 whole entry): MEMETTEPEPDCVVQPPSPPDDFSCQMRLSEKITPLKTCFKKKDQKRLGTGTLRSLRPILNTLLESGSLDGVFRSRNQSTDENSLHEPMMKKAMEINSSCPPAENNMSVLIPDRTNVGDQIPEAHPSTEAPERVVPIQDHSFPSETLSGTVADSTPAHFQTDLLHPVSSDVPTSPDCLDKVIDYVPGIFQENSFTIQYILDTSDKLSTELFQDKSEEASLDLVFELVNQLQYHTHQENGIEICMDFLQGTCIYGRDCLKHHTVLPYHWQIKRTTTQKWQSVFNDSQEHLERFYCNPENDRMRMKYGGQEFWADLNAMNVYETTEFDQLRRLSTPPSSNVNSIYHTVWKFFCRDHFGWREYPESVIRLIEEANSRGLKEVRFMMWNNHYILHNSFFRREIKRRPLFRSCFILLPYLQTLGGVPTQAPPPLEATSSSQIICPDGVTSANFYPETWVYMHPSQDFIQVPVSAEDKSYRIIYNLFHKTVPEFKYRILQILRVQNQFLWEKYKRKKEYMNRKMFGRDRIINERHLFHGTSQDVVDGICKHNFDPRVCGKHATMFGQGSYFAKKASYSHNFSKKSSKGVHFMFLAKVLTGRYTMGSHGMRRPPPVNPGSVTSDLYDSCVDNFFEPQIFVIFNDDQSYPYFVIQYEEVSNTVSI
As to the kind of experiment: Enzymatic Assay: Displacement of Probe A, a biotinylated probe binding to the TIPARP active site, was measured using a time-resolved fluorescence energy transfer (TR-FRET) assay. 20 nL of a dose response curve of each test compound was spotted in black 384-well polystyrene proxiplates (Perkin Elmer) using a Mosquito (TTP Labtech). Reactions were performed in a 8 μl volume by adding 6 μL of TIPARP and Probe A in assay buffer (20 mM HEPES pH=8, 100 mM NaCl, 0.1% bovine serum albumin, 2 mM DTT and 0.002% Tween20), incubating with test compound at 25° C. for 30 min, then adding 2 μL of ULight-anti 6×His and LANCE Eu-W1024 labeled streptavidin (Perkin Elmer). The final concentrations of TIPARP and Probe A were 6 nM and 2 nM, respectively. The final concentration of ULight-anti 6×His and LANCE Eu-W1024 labeled streptavidin were 4 nM and 0.25 nM, respectively. Reactions were incubated at 25° C. for an additional 30 min, then read on an Envision platereader equipped with a LANCE/DELFIA top mirror (Perkin Elmer) using excitation of 320 nm and emission of 615 nm and 665 nM with a […]. The ratio of the 665/615 nm emission were calculated for each well to determine the amount of complex of TIPARP and Probe Ain each well. […].

As usually defined, the IC50 is the concentration that gives 50% inhibition. As to `C[C@@H](CO[C@@H]1CCN(C2CCN(c3ncc(Br)cn3)CC2)C1=O)Nc1cn[nH]c(=O)c1C(F)(F)F`, the IC50 was below 100 nM.
